Laboratory results published in patent US20120129811A1, “TRICYCLIC INHIBITORS OF PRO-MATRIX METALLOPROTEINASE ACTIVATION” (priority 2010, published 2012).
Where a name gives a salt, the structure may show the parent alone.

Legend:
[1] = molecular target: T1, proMMP9(20-445;ΔFnII) (SEQ ID NO:6) (Homo sapiens, UniProt P14780, DEL216-390); assay: ThermoFluor binding assay with proMMP9(20-445;ΔFnII)
T1 construct: start methionine (N); made in house; host or cells: E. coli BL21(DE3) RIL
T1 sequence (P14780 with tags, fused parts or gaps DEL216-390): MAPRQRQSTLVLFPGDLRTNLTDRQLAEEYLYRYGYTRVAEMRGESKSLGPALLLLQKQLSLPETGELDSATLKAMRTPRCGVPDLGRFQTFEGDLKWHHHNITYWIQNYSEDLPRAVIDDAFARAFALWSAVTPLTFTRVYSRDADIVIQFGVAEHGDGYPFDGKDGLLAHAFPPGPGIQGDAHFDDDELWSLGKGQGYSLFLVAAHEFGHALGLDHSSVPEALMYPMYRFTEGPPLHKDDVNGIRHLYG
How it was run: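 Protein thermal stability was measured with 2.8 μM proMMP9(20-445;ΔFnII) and 50 μM 1,8-ANS in 50 mM HEPES pH 7.0, 100 mM NaCl, 0.001% Tween-20, 2.5 mM MgCl2, 300 μM CaCl2, across serial compound dilutions. Samples were heated 40–90° C at 1° C/min with fluorescence read at 500 nm. Tm was fitted, and binding was derived from thermodynamic parameters obtained by DSC and ThermoFluor.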

[2] = molecular target: T2, proMMP9(67-444;ΔFnII) (SEQ ID NO:5) (Homo sapiens, UniProt P14780, DEL216-390); assay: ThermoFluor binding assay with proMMP9(67-444;ΔFnII)
T2 construct: start methionine (N); made in house; host or cells: E. coli BL21(DE3) RIL
T2 sequence (P14780 with tags, fused parts or gaps DEL216-390): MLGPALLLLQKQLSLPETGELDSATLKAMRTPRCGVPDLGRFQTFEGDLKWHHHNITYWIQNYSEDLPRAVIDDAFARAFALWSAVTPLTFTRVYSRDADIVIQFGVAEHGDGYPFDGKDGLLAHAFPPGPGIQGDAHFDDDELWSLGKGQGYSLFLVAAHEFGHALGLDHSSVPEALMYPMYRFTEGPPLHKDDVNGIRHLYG
How it was run: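 Thermal shift of 3.5 μM proMMP9(67-444;ΔFnII), desalted beforehand, with 50 μM 1,8-ANS in 50 mM HEPES pH 7.0, 100 mM NaCl, 2.5 mM MgCl2, 300 μM CaCl2, 0.001% Tween-20. Heated 40–90 °C at 1 °C/min, fluorescence read at 500 nm; binding fitted from Tm shifts using DSC- and ThermoFluor-derived unfolding parameters.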

[3] = molecular target: T3, full-length proMMP9(1-707) activation by catalytic MMP3 (Homo sapiens, UniProt P14780, R574P); assay: proMMP9/MMP3 P126 Activation Assay; type: biochemical
T3 construct: made in house; host or cells: proMMP9: HEK293 (secreted); MMP3: E. coli
Method: proMMP9/MMP3 P126 Activation Assay
The reaction volume was 50 μL. […] Reactivity of residual MMP3 towards P-126 substrate was minimal under these conditions.

T3 sequence (P14780 20-707 R574P): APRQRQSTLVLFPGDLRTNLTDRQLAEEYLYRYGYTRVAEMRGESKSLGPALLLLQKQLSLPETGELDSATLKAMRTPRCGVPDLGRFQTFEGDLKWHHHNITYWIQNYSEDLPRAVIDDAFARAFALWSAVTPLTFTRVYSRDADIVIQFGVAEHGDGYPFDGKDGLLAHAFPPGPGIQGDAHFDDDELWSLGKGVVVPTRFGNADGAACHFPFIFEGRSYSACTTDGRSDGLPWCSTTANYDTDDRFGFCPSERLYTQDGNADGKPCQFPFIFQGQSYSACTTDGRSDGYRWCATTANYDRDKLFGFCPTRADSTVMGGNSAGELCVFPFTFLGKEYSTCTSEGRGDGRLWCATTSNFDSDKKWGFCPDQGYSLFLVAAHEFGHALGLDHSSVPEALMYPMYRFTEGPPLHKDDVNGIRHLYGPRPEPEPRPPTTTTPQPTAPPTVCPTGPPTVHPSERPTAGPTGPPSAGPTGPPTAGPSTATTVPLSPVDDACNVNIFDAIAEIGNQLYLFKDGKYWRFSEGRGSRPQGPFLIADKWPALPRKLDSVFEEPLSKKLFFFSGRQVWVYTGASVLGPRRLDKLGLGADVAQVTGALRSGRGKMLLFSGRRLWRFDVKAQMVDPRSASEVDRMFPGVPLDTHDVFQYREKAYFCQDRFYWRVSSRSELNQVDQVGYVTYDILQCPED

| Compound | Kd [1] [nM] | Kd [2] [nM] | IC50 [3] [nM] |
| --- | --- | --- | --- |
| Cn1ncc2c3nc(Nc4cc(C(N)=O)ccc4OC(F)(F)F)sc3ccc21 [Example 113, 3-(6-Methyl-6H-3-thia-1,6,7-triaza-as-indacen-2-ylamino)-4-trifluoromethoxy-benzamide.TFA] | 140 | 1500 | 250 |
| Cn1cnc2c(Nc3nc4c(ccc5c4ncn5C)s3)cccc21 [Example 73, (1-Methyl-1H-benzoimidazol-4-yl)-(6-methyl-6H-imidazo[4′,5′:3,4]-benzo[2,1-d]thiazol-2-yl)-amine.HCl] | 13000 | 7500 | 5800 |
| CCn1cc2c(ccc3sc(Nc4cc(S(C)(=O)=O)ccc4OC)nc32)n1 [Example 107, (7-Ethyl-7H-3-thia-1,6,7-triaza-as-indacen-2-yl)-(5-methanesulfonyl-2-methoxy-phenyl)-amine.TFA] | 6800 | 1500 | 580 |
| CC(C)Oc1ccc(S(C)(=O)=O)cc1Nc1nc2c(ccc3c2ncn3C)s1 [Example 147, (2-Isopropoxy-5-methanesulfonyl-phenyl)-(6-methyl-6H-imidazo[4′,5′:3,4]benzo[2,1-d]thiazol-2-yl)-amine.TFA] | 1400 | 400 | 220 |
| CCn1c(C)nc2ccc3sc(Nc4cnccc4OC(C)C)nc3c21 [Example 159, 8-Ethyl-N-(4-isopropoxypyridin-3-yl)-7-methyl-8H-imidazo[4′,5′:5,6]benzo[1,2-d]thiazol-2-amine.HCl] | 380 | 43 | 66 |
| CC(C)Oc1ccc(S(C)(=O)=O)cc1Nc1nc2c(ccc3ncn(CC(F)(F)F)c32)s1 [Example 146, (2-Isopropoxy-5-methanesulfonyl-phenyl)-[8-(2,2,2-trifluoro-ethyl)-8H-imidazo[4′,5′:3,4]-benzo[2,1-d]thiazol-2-yl]-amine.TFA] | 3100 | 640 | 800 |
| COc1ccc(S(C)(=O)=O)cc1Nc1nc2c(ccc3cnccc32)s1 [Example 97, (5-Methanesulfonyl-2-methoxy-phenyl)-thiazolo[4,5-f]isoquinolin-2-yl-amine.TFA] | 4400 | 1000 | 180 |
| Cc1nc2ccc3sc(Nc4cc(S(N)(=O)=O)ccc4OC(F)(F)F)nc3c2n1C [Example 126, 3-(7,8-Dimethyl-8H-imidazo[4′,5′:3,4]-benzo[2,1-d]thiazol-2-ylamino)-4-trifluoromethoxy-benzenesulfonamide.TFA] | > 95000 | 2200 | 460 |
| Cn1cnc2c3nc(Nc4ccc(C#N)cc4OC(F)(F)F)sc3ccc21 [Example 86, 4-(6-Methyl-6H-imidazo[4′,5′:3,4]benzo[2,1-d]thiazol-2-ylamino)-3-trifluoromethoxy-benzonitrile.HCl] | > 95000 | 680 | 650 |
| COc1ccncc1Nc1nc2c(ccc3ncn(CC(F)(F)F)c32)s1 [Example 153, N-(4-Methoxypyridin-3-yl)-8-(2,2,2-trifluoroethyl)-8H-imidazo[4′,5′:5,6]-benzo[1,2-d]thiazol-2-amine] | 1400 | 600 | 650 |
| COc1ccncc1Nc1nc2c(ccc3c2ncn3C)s1 [Example 149, (4-Methoxy-pyridin-3-yl)-(6-methyl-6H-imidazo[4′,5′:3,4]benzo[2,1-d]thiazol-2-yl)-amine.TFA] | 1000 | 39 | 110 |
| COc1ccc(S(C)(=O)=O)cc1Nc1nc2c(ccc3cnn(C)c32)s1 [Example 150, (5-Methanesulfonyl-2-methoxy-phenyl)-(1-methyl-1H-6-thia-1,2,8-triaza-as-indacen-7-yl)-amine.TFA] | 8800 | 1200 | 340 |
| COc1ccc(Cl)cc1Nc1nc2c(ccc3nc(N)sc32)s1 [Example 7, N^7-(5-Chloro-2-methoxy-phenyl)-benzo[1,2-d;3,4-d′]-bisthiazole-2,7-diamine.TFA] | 2300 | 200 | 1700 |
| CCn1c(C)nc2ccc3sc(Nc4cc(F)ccc4OC)nc3c21 [Example 121, (8-Ethyl-7-methyl-8H-imidazo[4′,5′:3,4]benzo[2,1-d]thiazol-2-yl)-(5-fluoro-2-methoxy-phenyl)-amine.TFA] | 4000 | 860 | 310 |
| CCn1c(C)nc2ccc3sc(Nc4cc(F)ccc4OC(C)C)nc3c21 [Example 139, (8-Ethyl-7-methyl-8H-imidazo[4′,5′:3,4]benzo[2,1-d]thiazol-2-yl)-(5-fluoro-2-isopropoxy-phenyl)-amine.TFA] | > 95000 | 960 | 330 |
| COc1ccc(C#N)cc1Nc1nc2c(ccc3c2ccn3C)s1 [Example 85, 4-Methoxy-3-(6-methyl-6H-thiazolo[4,5-e]indol-2-ylamino)-benzonitrile.HCl] | 580 | 150 | 150 |
| COc1c(Nc2nc3c(ccc4c3ncn4C)s2)cc(C(N)=O)cc1C(F)(F)F [Example 53, 4-Methoxy-3-(6-methyl-6H-imidazo[4′,5′:3,4]benzo[2,1-d]thiazol-2-ylamino)-5-trifluoromethyl-benzamide.HCl] | 4000 | 6200 | 4200 |
| COc1ccc([N+](=O)[O-])cc1Nc1nc2c(ccc3c2ncn3C)s1 [Example 76, (2-Methoxy-5-nitro-phenyl)-(6-methyl-6H-imidazo[4′,5′:3,4]benzo[2,1-d]thiazol-2-yl)-amine.HCl] | 530 | 380 | 100 |
| COc1ccc(S(C)(=O)=O)cc1Nc1nc2c(ccc3nc(C)n(CC(F)(F)F)c32)s1 [Example 138, (5-Methanesulfonyl-2-methoxy-phenyl)-[7-methyl-8-(2,2,2-trifluoro-ethyl)-8H-imidazo[4′,5′:3,4]benzo[2,1-d]thiazol-2-yl]-amine.TFA] | 690 | 480 | 560 |
| CC(C)Oc1ccc(S(N)(=O)=O)cc1Nc1nc2c(ccc3ncn(C)c32)s1 [Example 131, 4-Isopropoxy-3-(8-methyl-8H-imidazo[4′,5′:3,4]benzo[2,1-d]thiazol-2-ylamino)-benzenesulfonamide.TFA] | > 95000 | 2000 | 590 |
| CCn1c(C)nc2ccc3sc(Nc4cc(S(N)(=O)=O)ccc4OC(C)C)nc3c21 [Example 118, 3-(8-Ethyl-7-methyl-8H-imidazo[4′,5′:3,4]benzo[2,1-d]thiazol-2-ylamino)-4-isopropoxy-benzenesulfonamide.TFA] | 290 | 860 | 510 |
| CCN(CC)S(=O)(=O)c1ccc(OC)c(Nc2nc3c(ccc4c3ncn4C)s2)c1 [Example 71, N,N-Diethyl-4-methoxy-3-(6-methyl-6H-imidazo[4′,5′:3,4]-benzo[2,1-d]thiazol-2-ylamino)-benzenesulfonamide.HCl] | 2000 | 1600 | 1500 |
| COc1ccncc1Nc1nc2c(ccc3nc(C)n(C)c32)s1 [Example 154, N-(4-Methoxypyridin-3-yl)-7,8-dimethyl-8H-imidazo[4′,5′:5,6]benzo[1,2-d]thiazol-2-amine.TFA] | 6600 | 1100 | 630 |
